From ChEMBL document CHEMBL2375354, “Total synthesis of the marine cyclic depsipeptide viequeamide a” (J Nat Prod, 2013)
Numbered stars: 1 amine (or outer) side, 2 acyl side, 3 side chain; on linkers, the order of the positions; unused ones are H or OH. Bridge positions count the residues as written; N and C are the ends. Square brackets hold non-standard residues; d marks the D form. Peptide text beside a SMILES is read from it. X1 = C#CCCC[C@H](O[*:2])C(C)(C)C(=O)[*:1]; Hmp(2R,3S) = CC[C@H](C)[C@@H](O)C(=O)O; NMeV = CN[C@H](C(=O)O)C(C)C

Assays:
[1] = tested on: A549; test: Cytotoxicity against human A549 cells by SRB assay; format: functional, cell-based
[2] = Stability of the compound in DMSO by HPLC analysis; format: physicochemical
[3] = Cytotoxicity against human KB/VCR cells by SRB assay; format: functional, cell-based
[4] = Cytotoxicity against human H460 cells by SRB assay; format: functional, cell-based; conditions: NCI-H460
[5] = tested on: KB; test: Cytotoxicity against human KB cells by SRB assay; format: functional, cell-based

Stability [2]: Unstable
Structure (SMILES): C#CCCC[C@@H]1OC(=O)[C@H]([C@@H](C)O)NC(=O)[C@H](C(C)C)N(C)C(=O)[C@@H]2CCCN2C(=O)[C@@H]([C@@H](C)CC)OC(=O)[C@H](C(C)C)N(C)C(=O)[C@H](C(C)C)NC(=O)C1(C)C [VIEQUEAMIDE A] (V[NMeV][Hmp(2R,3S)]P[NMeV]T; linker N-C via X1)
IC50 [1]: < 100 µM | IC50 [3]: < 100 µM | IC50 [4]: < 100 µM | IC50 [5]: < 100 µM
